pEC50: −log10 of the molar value.
Experiments:
JEG-3 cells [1] = assay: JEG-3 protocol: [3H]-thymidine incorporation / proliferation (leptin assay in non-recombinant system); format: cell-based; conditions: FIG. 6
Description: Leptin Assay in Non-Recombinant System
It seems that overexpression of the receptor (as well as the possibility for different drugs to act on different parts of the signaling pathway triggered by leptin association with its receptor) results in most cases in the absence of activity of the drugs tested.
The leptin receptor expression in non-recombinant system is often fluctuating and care must be given to identify a system where signal stability remains within experiments. Using such a system, leptin receptor antagonist mimetics could be identified by evaluating is their action vs. leptin (see below).
Leptin is produced chiefly in adipose cells, but in humans, mRNA encoding leptin is also present in the placenta. Here, leptin might play an important proliferative role in the microvasculature. The possibility to use this hypothesis in a native cell line was evaluated.
In JEG-3 cells (choriocarcinoma cell line) leptin is able to stimulate proliferation up to 3 fold (Biol. Reprod. (2007) 76: 203-10). […] The radioactivity incorporated by the cells is an index of their proliferative activity and is measured in counts per minute (CPM) with a liquid scintillation beta counter. […]

JEG-3 cells [2] = conditions: Biol. Reprod. (2007) 76: 203-10; cited from earlier work

Leptin: a hormone synthesized in fat cells that is believed to act in the hypothalamus to reduce food intake and body weight
pEC50 (JEG-3 cells [1]; JEG-3 cells (choriocarcinoma cell line), read-out: EC50, concentration-dependent increase in [3H]-thymidine incorporation): 8.68 | concentration of maximal effect on [3H]-thymidine incorporation (JEG-3 cells [1]; JEG-3 cells): 100 nM | stimulation of proliferation (JEG-3 cells [2]): up to 3 fold

Reference: patent US20110275637A1, “PIPERAZINE DERIVATIVES AND THEIR USE AS LEPTIN RECEPTOR MODULATORS” (priority 2008, published 2011)
